From patent US10201558B2, “Compositions of selenoorganic compounds and methods of use thereof” (Alltech, Inc., priority 2014, dated 2019)
“Also recorded” adds a separate entry of the source.

Experiments:
pAKT = experiment: Western blot of pAKT in IMR-32 cells; type: cell-based, human; conditions: 6 hours and 24 hours
Description: (§1) IMR-32 cells were seeded on 6-well plates and then treated with control and various compounds for 6 hours and 24 hours, as described above. After treatments, cells were rinsed with ice-cold PBS and lysed in ice-cold RIPA buffer containing complete proteinase and phosphatase inhibitors (Thermo-Fisher Scientific, Waltham, Mass.) on ice for 30 min Cell lysates were collected using a cell scraper and transfer pipette and then centrifuged at 12000×g for 30 min at 4° C. to remove the DNA pellet and obtain the protein extract. Protein levels in the supernatant of these cell lysates were determined using the Pierce Micro-BCA protein assay kit (Thermo Scientific-Piece Biotechnology, Rockford, Ill.) according to the manufacturer's protocol […]
(§2) Positive signals on the membrane blots were detected using Amersham's enhanced chemiluminescence (ECL) Western Blotting Prime Detection reagents (GE healthcare Lifescience, Pittsburgh, Pa.). Images of these luminescence signals on the membrane blots were captured using the LI-COR Odyssey Fc Image system (Lincoln, Nebr.). […] Protein band densities in the Western blots were determined using the Li—COR Image studio software or NIH ImageJ software, and then normalized by ACTB protein level in each sample. […]

[1] = test system: phosphorylated Tau (pTau S396, pTau S400/T403/S404); experiment: Western blot of phosphorylated Tau in IMR-32 cells; type: cell-based, human; conditions: 150 ppb, 24 hours
Description: (§3) IMR-32 cells were seeded on 6-well plates and then treated with control and various compounds for 6 hours and 24 hours, as described above. After treatments, cells were rinsed with ice-cold PBS and lysed in ice-cold RIPA buffer containing complete proteinase and phosphatase inhibitors (Thermo-Fisher Scientific, Waltham, Mass.) on ice for 30 min Cell lysates were collected using a cell scraper and transfer pipette and then centrifuged at 12000×g for 30 min at 4° C. to remove the DNA pellet and obtain the protein extract. Protein levels in the supernatant of these cell lysates were determined using the Pierce Micro-BCA protein assay kit (Thermo Scientific-Piece Biotechnology, Rockford, Ill.) according to the manufacturer's protocol
(§4) For Western blot analysis, five micrograms of total proteins from control (0 ppb)- and compound(s)-treated cells were subjected to SDS-PAGE gel separation and then transferred to PVDF membranes, as described previously (Reddy, Liu et al. 2008 Science). Membranes were blocked in a phosphate-buffered saline (PBS) containing 5% (w/v) of bovine serum albumin (Sigma, St. Louis, Mo.) and incubated with specific primary antibodies followed by the incubation with HRP-conjugated anti-mouse or anti-rabbit secondary antibodies (1:5000 dilution, Cell Signaling Inc.). All primary antibodies except PGC1a (Abcam, Cambridge, Mass.), G6pc (Santa Cruz, Dallas, Tex.) and Actb (Li-Cor, Lincoln, Nebr.) were purchased from Cell Signaling Inc., Beverly, Mass.
(§5) Positive signals on the membrane blots were detected using Amersham's enhanced chemiluminescence (ECL) Western Blotting Prime Detection reagents (GE healthcare Lifescience, Pittsburgh, Pa.). Images of these luminescence signals on the membrane blots were captured using the LI-COR Odyssey Fc Image system (Lincoln, Nebr.). The same membrane blot was stripped and re-blotted with another antibody as described in the GE WB ECL-prime-detection protocol (GE Healthcare Lifescience, Pittsburgh, Pa.). Protein band densities in the Western blots were determined using the Li—COR Image studio software or NIH ImageJ software, and then normalized by ACTB protein level in each sample. Data are presented as mean±SEM of three samples per each group.
To determine whether selenium Compound C, Compound D or Compound E can potentially contribute to diminished tangle formation in AD, the phosphorylation of two AD biomarkers, pTau S396 (Serine 396) and pTauS400/T403/5404 (Serine 400, Threonine 403, and Serine 404), as well as the Total Tau protein levels was assessed in IMR-32 cells. Phosphorylation of Tau at the indicated amino acid sites has been associated with destabilization of the Tau protein and the eventual formation of tangles. For this purpose, cells were treated with 150 ppb of Compound C, Compound D, or Compound E for 6 hours and 24 hours, and then subjected to Western blot analysis (see FIG. 4A). Mean±SEM, n=3.

Total Tau = experiment: Western blot of Total Tau protein in IMR-32 cells; type: cell-based, human; conditions: 150 ppb, 24 hours
Description: as §1, §2

[2] = test system: primary fetal rat neurons; experiment: Cell survival of primary cortical neurons (cell counts); type: cell-based; conditions: 150 ppb selenium compound(s), 24 hours; Control 100 ± 1.57; mixture: 30 ppb of the element from each compound
Description: For primary neurons, dissociated primary cortical neuron cultures were established from E-18 rat embryos as previously described (Lovell et al., Free Radic. Biol. Med. 2000; Lovell et al., Neurobiol. Aging 2001). Studies were carried out on cells 7 days in culture by switching to Locke's solution consisting of 1 mL of 154 mM NaCl, 5.6 mM KCl, 2.3 mM CaCl2, 1.0 mM MgCl2, 3.6 mM NaHCO3, 10 mM glucose, 5 mM HEPES (pH 7.2) with 10 mg/L gentamicin sulfate. Primary neurons were treated for 24 hours in Locke's solution with the indicated selenium and sulfur compounds in Table 5. Cell counts were performed to measure cell survival/toxicity.
The effects of the selenium and sulfur compounds, identified as components of water extracts of selenium-enriched yeast, on neuronal cell survival was also tested. Primary neurons isolated from fetal rat brain were incubated with chemically synthesized individual selenium and sulfur compounds that were identified as components of water extracts of selenium-enriched yeast (Table 5). In this case, the elemental concentration of each compound identified in Table 5 was 150 ppb and, where mixtures were used, the 150 ppb treatment was made up of 30 ppb of the element from each of the five compounds in question.

UCP3 = experiment: QRT-PCR of UCP3 mRNA in IMR-32 cells; type: cell-based, human; conditions: 150 ppb, 6 hours
Description: Human IMR-32 cells were seeded on gelatinized 6-well (6.5×10^5 cells/well) or 24-well (1.3×10^5 cells/well) plates. Cells were treated with control (0 ppb) or various compounds for 6 hours or 24 hours. Total RNA from these cells was isolated using Trizol (Invitrogen) according to the manufacturer's protocol, and then incubated with DNase I to remove any potential contaminated genomic DNA. Then RNA samples were subjected to real-time PCR analysis using the Applied-Bioscience's RT kit and predesigned Taqman probes (Invitrogen), as described previously (Lan et al EMBO J 2003). The mRNA levels of UCP1, UCP2, UCP3, SLC25A27 (UCP4), SLC25A14 (UCP5), PSEN1, Nicastrin, GSK3B, MAPK11-14, PPARG, APOE, RCAN1, RCAN1.1, G6PC, INSR, IGF1R and FOXO4 were measured. Three to six samples were analyzed in each treatment group. Data were normalized by Actin B (ACTB) or Glyceraldehyde Phosphate Dehydrogenase (GAPDH) mRNA levels in each sample and are presented as mean±SEM of 3-6 samples.

PGC-1α = experiment: Western blot of PGC-1α protein in IMR-32 cells; type: cell-based, human; conditions: 150 ppb, 24 hours
Description: as §1, §2

[3] = test system: phosphorylated FOXO4 (pFOXO4 T28); experiment: Western blot of phosphorylated FOXO4 in IMR-32 cells; type: cell-based, human; conditions: for phosphorylation of FOXO4 (pFOXO4) levels: 6 hours; for pFOXO4 Threonine 28 (T28) levels: 24 hours
Description: as §3, §4, §5

Structure (SMILES)	pAKT protein levels (pAKT)	phosphorylation of Tau at 5400/T403/5404 [1]	phosphorylation of Tau at S396 [1]	ratio of total pTau at both S396 and S400/T403/S404 to total Tau proteins [1]	total Tau protein level (Total Tau)	Viable Cell Number (Mean ± SEM, n = 6) [2]	UCP3 mRNA expression (UCP3)	PGC-1α protein levels (normalized by ACTB) (PGC-1α)	phosphorylation of FOXO4 (pFOXO4) levels [3]	pFOXO4 Threonine 28 (T28) levels [3]
C[Se]C[C@H]1O[C@@H](n2cnc3c(N)ncnc32)C(O)C1O (stereo in doubt) [Compound C, 5′-deoxy-5′-methylselenoadenosine]	not visibly decreased	significantly inhibited	not at S396	significantly attenuated	did not affect	101.1 ± 4.22	significant decrease; also recorded: inhibited	increase; also recorded: elevated	decrease	decreased
C[Se]C[C@H](NC(=O)CC[C@H](N)C(=O)O)C(=O)O [Compound E, γ-L-glutamyl-Se-methyl-L-selenocysteine]	not visibly decreased	significantly down-regulated	significantly down-regulated	trend towards reduced	significantly down-regulated	95.69 ± 10.53	did not have any effect	increase	decrease	decreased
